Read-outs that look alike come from different tables or passages of the source.
Legend:
Experiment in all cases: Glasshouse assay for herbicidal activity (pre- and post-emergence), percentage phytotoxicity
Type in all cases: in vivo
[1] = test system: Alopecurus myosuroides (ALOMY); conditions: Alopecurus myosuroides
Description: (§1) Test—Glasshouse Assay for Herbicidal Activity
(§2) Seeds of a variety of monocotyledonous and dicotyledonous test plants are sown in standard soil in pots. The plants are cultivated for one day (for pre-emergence (PRE)) or for about 12 days (for post-emergence (POST)) under controlled conditions in a glasshouse (warm climate species at 24/18° C., cool climate species at 20/16° C., both at day/night; 16 hours light; 65% humidity).
(§3) The test plants are then grown on, in a glasshouse (greenhouse) under controlled conditions (warm climate species at 24/18° C., cool climate species at 20/16° C., both at day/night; 16 hours light; 65% humidity) and are watered twice daily. 15 days after application of the test herbicide (15 DAA) (for post-emergence), and 20 days after application of the test herbicide (20 DAA) (for pre-emergence), the test plants are evaluated visually, and an assessed percentage phytotoxicity score is given for each herbicidal application on each plant species (with 100%=total damage to plant; 0%=no damage to plant).
(§4) The plant species tested are as follows: Alopecurus myosuroides (ALOMY), Avena fatua (AVEFA), Lolium perenne (LOLPE), Echinochloa crus-galli (ECHCG).

[2] = test system: Avena fatua (AVEFA); conditions: Avena fatua
Description: as §1, §2, §3, §4

[3] = test system: Echinochloa crus-galli (ECHCG); conditions: Echinochloa crus-galli
Description: as §1, §2, §3, §4

[4] = test system: Lolium perenne (LOLPE); conditions: Lolium perenne
Description: as §1, §2, §3, §4

[5] = post-emergence, 360 h, 250 g/ha, post-emergence, 15 DAA, visual assessment (100%=total damage, 0%=no damage), read-out: Post-emergence herbicidal activity (percentage phytotoxicity) ALOMY POST
[6] = pre-emergence, 480 h, 250 g/ha, pre-emergence, 20 DAA, visual assessment (100%=total damage, 0%=no damage), read-out: Pre-emergence herbicidal activity (percentage phytotoxicity) ALOMY PRE
[7] = post-emergence, 360 h, 250 g/ha, post-emergence, 15 DAA, visual assessment (100%=total damage, 0%=no damage), read-out: Post-emergence herbicidal activity (percentage phytotoxicity) AVEFA POST
[8] = pre-emergence, 480 h, 250 g/ha, pre-emergence, 20 DAA, visual assessment (100%=total damage, 0%=no damage), read-out: Pre-emergence herbicidal activity (percentage phytotoxicity) AVEFA PRE
[9] = post-emergence, 360 h, 250 g/ha, post-emergence, 15 DAA, visual assessment (100%=total damage, 0%=no damage), read-out: Post-emergence herbicidal activity (percentage phytotoxicity) ECHCG POST
[10] = pre-emergence, 480 h, 250 g/ha, pre-emergence, 20 DAA, visual assessment (100%=total damage, 0%=no damage), read-out: Pre-emergence herbicidal activity (percentage phytotoxicity) ECHCG PRE
[11] = post-emergence, 360 h, 250 g/ha, post-emergence, 15 DAA, visual assessment (100%=total damage, 0%=no damage), read-out: Post-emergence herbicidal activity (percentage phytotoxicity) LOLPE POST
[12] = pre-emergence, 480 h, 250 g/ha, pre-emergence, 20 DAA, visual assessment (100%=total damage, 0%=no damage), read-out: Pre-emergence herbicidal activity (percentage phytotoxicity) LOLPE PRE

SMILES | pest or weed control at 250 g/ha ([1]; post-emergence, 360 h, POST-emergence, rate 250 g/ha, visual score 15 DAA (100%=total damage, 0%=no damage), read-out: Post-emergence herbicidal activity (percentage phytotoxicity) ALOMY POST) [%] | pest or weed control at 250 g/ha ([1]; pre-emergence, 480 h, PRE-emergence, rate 250 g/ha, visual score 20 DAA (100%=total damage, 0%=no damage), read-out: Pre-emergence herbicidal activity (percentage phytotoxicity) ALOMY PRE) [%] | pest or weed control at 250 g/ha ([2]; post-emergence, 360 h, POST-emergence, rate 250 g/ha, visual score 15 DAA (100%=total damage, 0%=no damage), read-out: Post-emergence herbicidal activity (percentage phytotoxicity) AVEFA POST) [%] | pest or weed control at 250 g/ha ([2]; pre-emergence, 480 h, PRE-emergence, rate 250 g/ha, visual score 20 DAA (100%=total damage, 0%=no damage), read-out: Pre-emergence herbicidal activity (percentage phytotoxicity) AVEFA PRE) [%] | pest or weed control at 250 g/ha ([3]; post-emergence, 360 h, POST-emergence, rate 250 g/ha, visual score 15 DAA (100%=total damage, 0%=no damage), read-out: Post-emergence herbicidal activity (percentage phytotoxicity) ECHCG POST) [%] | pest or weed control at 250 g/ha ([3]; pre-emergence, 480 h, PRE-emergence, rate 250 g/ha, visual score 20 DAA (100%=total damage, 0%=no damage), read-out: Pre-emergence herbicidal activity (percentage phytotoxicity) ECHCG PRE) [%] | pest or weed control at 250 g/ha ([4]; post-emergence, 360 h, POST-emergence, rate 250 g/ha, visual score 15 DAA (100%=total damage, 0%=no damage), read-out: Post-emergence herbicidal activity (percentage phytotoxicity) LOLPE POST) [%] | pest or weed control at 250 g/ha ([4]; pre-emergence, 480 h, PRE-emergence, rate 250 g/ha, visual score 20 DAA (100%=total damage, 0%=no damage), read-out: Pre-emergence herbicidal activity (percentage phytotoxicity) LOLPE PRE) [%] | pest or weed control at 250 g/ha [1, 5] [%] | pest or weed control at 250 g/ha [1, 6] [%] | pest or weed control at 250 g/ha [2, 7] [%] | pest or weed control at 250 g/ha [2, 8] [%] | pest or weed control at 250 g/ha [3, 9] [%] | pest or weed control at 250 g/ha [3, 10] [%] | pest or weed control at 250 g/ha [4, 11] [%] | pest or weed control at 250 g/ha [4, 12] [%]
C/C=C/c1cc(C)c(C2C(=O)CC(CC(=O)NCc3ccc(C#N)cc3)C2=O)c(CC)c1 (stereo not drawn) [Compound B191] | 50 | 60 | 90 | 40 | 100 | 80 | 90 | 70 |  |  |  |  |  |  |  | 
Cc1cc(C)c(C2C(=O)CC(CC(=O)NC(C#N)C3CC3)C2=O)c(C)c1 (stereo not drawn) [Compound B58] |  |  |  |  |  |  |  |  | 50 | 10 | 70 | 40 | 20 | 20 | 50 | 20
Cc1cc(C)c(C2C(=O)CC(CC(=O)NCC(F)F)C2=O)c(C)c1 (stereo not drawn) [Compound B57] |  |  |  |  |  |  |  |  | 70 | 70 | 80 | 20 | 80 | 90 | 80 | 80

Reference: patent US10206394B2, “Herbicidal compounds” (Syngenta Participations AG, priority 2014, dated 2019)
